The source made the active and inactive calls.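 How the source made its calls: active means maximal inhibition of USP17 at or above 30% in the confirmation dose-response, a value not among the printed readouts; inactive means the rest.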
The molecules below were run against Ubiquitin carboxyl-terminal hydrolase 17-like protein 5 (Homo sapiens) (UniProt A8MUK1) (assay: ubiquitin-specific protease 17 inhibitors, concentration series, biochemical, verification of primary actives (AID 1645864)). Conditions: purified USP17, ubiquitin-rhodamine cleavage fluorescence, 3 h.
Sequence of Ubiquitin carboxyl-terminal hydrolase 17-like protein 5 (Homo sapiens) (A8MUK1 whole entry, looked up): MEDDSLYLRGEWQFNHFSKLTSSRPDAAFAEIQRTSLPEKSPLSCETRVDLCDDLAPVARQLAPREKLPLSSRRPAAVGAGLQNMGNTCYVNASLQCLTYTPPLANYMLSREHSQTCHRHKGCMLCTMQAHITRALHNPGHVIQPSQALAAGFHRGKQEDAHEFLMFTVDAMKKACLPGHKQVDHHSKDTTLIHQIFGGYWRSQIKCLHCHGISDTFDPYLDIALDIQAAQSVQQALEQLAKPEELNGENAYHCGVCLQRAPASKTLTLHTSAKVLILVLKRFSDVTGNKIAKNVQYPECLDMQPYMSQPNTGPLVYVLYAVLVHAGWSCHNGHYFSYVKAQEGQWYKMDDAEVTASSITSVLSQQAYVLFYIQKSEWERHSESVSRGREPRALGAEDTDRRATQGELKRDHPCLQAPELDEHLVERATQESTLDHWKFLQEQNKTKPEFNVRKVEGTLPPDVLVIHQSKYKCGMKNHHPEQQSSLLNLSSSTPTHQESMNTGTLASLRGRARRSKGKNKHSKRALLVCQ

Structure (SMILES)	IC50
CC(=O)c1cc2c(=O)c3c(C(=O)O)c(O)c(O)cc3oc2c(C(C)=O)c1-c1coc2cc(O)c(O)c(C(=O)O)c2c1=O	0.49 µM
Cc1ccccc1C(=O)c1ccc(C(=O)NC2CCCCCC2)[nH]1	2.96 µM
CCn1cc(-c2nc(-c3ccccc3)no2)c(=O)c2cc(F)ccc21	2.34 µM
Cc1nc(-c2ccc(C(=O)NCc3ccc(F)cc3)cc2)cs1	48.1 µM
Cc1ccc(C(C)C)cc1OCCOCCN1CCNCC1	> 50 µM (inactive)
Fc1ccc(Cc2nc(-c3ccc4nncn4c3)no2)cc1	> 50 µM (inactive)
Cc1ccc(Cl)c(-n2nnc(C(=O)Nc3ccccc3C#N)c2C)c1	4.85 µM
O=C(c1ccco1)N1CCCC2(C1)Nc1cccnc1NC2=NC1CCCC1 (stereo unspecified)	> 50 µM (inactive)
COc1ccc(C(=O)Nc2ccc3c(c2)C(=O)N(C)c2ccccc2O3)cc1	> 50 µM (inactive)
Nc1c(-c2ccc(Cl)cc2)cnc2nc(Sc3ncc(C(F)(F)F)cc3Cl)nn12	> 50 µM (inactive)
COc1ccccc1/C=C/C(=O)Nc1nc2n(n1)C(c1ccc(Cl)cc1)CC(=O)N2 (stereo unspecified)	> 50 µM (inactive)
CCOc1ccccc1-c1nc(-c2nnn(Cc3ccccc3)c2C)no1	> 50 µM (inactive)
COc1ccc(-c2cc(C(=O)NC3CCCCCC3)[nH]n2)cc1S(=O)(=O)N(C)C	44.5 µM
Cc1ccccc1NC(=O)Nc1ccccc1OCc1cc(=O)n2cccc(C)c2n1	0.663 µM
COc1ccc(NC(=O)c2nnn(-c3cccc(C)c3)c2C)cc1	> 50 µM (inactive)
O=C(NC(Cc1ccccc1)c1nc2ccccc2[nH]1)c1ccccn1 (stereo unspecified)	> 50 µM (inactive)
C=Cc1ccc(Cn2cc(S(=O)(=O)N3CCOCC3)ccc2=O)cc1	40.6 µM
COc1ccc(NC(=O)Cn2cc(C(=O)c3ccc(C)cc3)c(=O)c3ccccc32)cc1	1.98 µM
NS(=O)(=O)c1ccc(NS(=O)(=O)c2ccc(NC(=O)Nc3ccc(Cl)cc3)cc2)cc1	37.8 µM
COc1ccccc1NC(=O)c1cc2c(C)nn(Cc3ccccc3)c2s1	29.9 µM
O=C(CNC(=O)c1cccc(F)c1)Nc1nc2ccccc2[nH]1	19.2 µM
CS(=O)(=O)c1ccc(NC(=O)C2CN(c3nc4c(F)cccc4s3)C2)cc1	36.2 µM
CN=C(N)NCCC/C=C/CCCC(C)CC(C)C1OC(=O)/C=C/C(C)C(O)CC(O)C(C)C(O)CCC(C)C(O)CC2(O)OC(CC(OC(=O)CC(=O)O)CC(O)CC(O)C(C)C(O)/C=C/C1C)CC(O)C2O (stereo unspecified)	> 50 µM (inactive)
CCc1ccccc1NC(=O)c1cc(-c2ccccn2)n[nH]1	31 µM

Structure (SMILES)	IC50
Cc1ccc2c(c1)c(=O)c(C(=O)c1ccccc1)cn2CC(=O)Nc1ccccc1	9.87 µM
CCn1cc2c(n1)c(=O)n(Cc1ccccc1)c(=O)n2CC(=O)Nc1ccc(OC)cc1	2.91 µM
O=C(COc1ccc2oc3c(c2c1)CCCC3)Nc1ccccn1	25.4 µM
COc1ccc(NC(=O)Cn2c(CS(=O)(=O)c3ccc(C)cc3)nc3ccccc32)cc1	6.52 µM
NS(=O)(=O)c1cccc(NC(=O)CN2CCCc3ccccc32)c1	> 50 µM (inactive)
Cc1cc(NC(=O)Cn2c(=O)n(CCCCC(=O)NCc3ccco3)c(=O)c3ccccc32)ccc1Br	2.84 µM
O=C(Cn1c(=O)n(CCCC(=O)N2CC=C(c3ccccc3)CC2)c(=O)c2ccccc21)NCCC1=CCCCC1	35 µM
COc1cccc(OCCCn2c(C(C)NC(=O)c3ccco3)nc3ccccc32)c1 (stereo unspecified)	33.5 µM
O=C(Cn1c(=O)n(Cc2ccc3c(c2)OCO3)c(=O)c2ncccc21)c1ccccc1	46.8 µM
COc1ccc(N(CC(=O)Nc2cccc(F)c2)S(=O)(=O)c2ccc(OC)c(OC)c2)cc1	25.3 µM
COC(=O)c1cc2c(ccn2C)n1CC(=O)NC1CCCC1	> 50 µM (inactive)
CO[C@H]1[C@@H](O)[C@H](C)O[C@H](O[C@H]2[C@H](Oc3cccc4c(O)c5c(=O)oc6ccc(C)c7c(=O)oc(c34)c5c67)O[C@H](C)[C@H](O)[C@@H]2O)[C@@H]1O	> 50 µM (inactive)
COCCCn1c(C(=O)NCCc2ccccc2)cc2c(=O)n3cccc(C)c3nc21	28.5 µM
COC1=CC(=O)c2c(O)c(C)c(CC(C)=O)c(O)c2C1=O	2.87 µM
CCOc1ccc(NC(=O)c2cc(-c3ccccc3)c(N3CCOCC3)s2)cc1	19.9 µM
N#C/C(=C/c1sc(N2CCOCC2)nc1-c1ccccc1)c1ccccn1	> 50 µM (inactive)
COc1ccc(CCNC(=O)CCCn2c(=O)c3ccccc3n(CC(=O)OCc3ccccc3)c2=O)cc1OC	23.1 µM
COc1cccc(N2CCN(C(=O)C3CCN(c4nc(NC(C)=O)ns4)CC3)CC2)c1	29.2 µM
c1ccc2c(-c3nc(C4CC4)no3)nnc(NCc3ccncc3)c2c1	38.7 µM
Cc1ccccc1NC(=O)C(C)n1c(=O)cc(-c2ccccc2)c2c(C)nn(C)c21 (stereo unspecified)	2.67 µM
Cc1cccc(-n2nc(C)c3c2NC(=O)CC3C(=O)c2cc3ccccc3o2)c1 (stereo unspecified)	34.1 µM
CN(C)S(=O)(=O)N1CCCC2(C1)Nc1cccnc1NC2=NC1CCCC1 (stereo unspecified)	> 50 µM (inactive)
Cc1cc(C(F)(F)F)n(-c2ccc(NC(=O)Nc3cccc(C(F)(F)F)c3)cc2)n1	15.4 µM
Cc1ccc(OCCn2c(=N)n(C(C)C)c3ccccc32)cc1	> 50 µM (inactive)

Structure (SMILES)	IC50
O=C(COc1nsnc1N1CCOCC1)Nc1ccccc1F	> 50 µM (inactive)
c1csc(-c2nc(Nc3ccc4c(c3)CCC4)c3ccccc3n2)c1	4.19 µM
COc1c2nc3ccccc3oc-2cc(=O)c1OC	23.7 µM
CSc1ccc(CNCc2c(C(=O)O)n(Cc3ccccc3)c3cc(C)ccc23)cc1	> 50 µM (inactive)
O=C(Nc1ccccc1-c1nc2ccccc2[nH]1)c1sc2ccccc2c1Cl	1.8 µM
O=C(Cn1c(=O)c2sccc2n(Cc2ccc([N+](=O)[O-])cc2)c1=O)NCCc1ccccc1	26.8 µM
CC1CCc2sc(NC(=O)c3ccccc3Oc3ccccc3)c(C(N)=O)c2C1 (stereo unspecified)	6.96 µM
Cc1cc(Nc2ccc(C(=O)NCc3ccco3)cc2)n2nc(-c3cccnc3)nc2n1	34.1 µM
O=C1Nc2c(Cl)cc(Cl)cc2C1(O)c1sc(NC2CCCCC2)nc1-c1ccccc1 (stereo unspecified)	30.9 µM
O=C(CCn1c(=O)c2sccc2n(CC(=O)OCc2ccccc2)c1=O)NCc1ccc2c(c1)OCO2	14.1 µM
CNC(=O)CC1NC(=O)c2csc(n2)-c2ccc(-c3nc(C4=NC(C(=O)N5CCCC5C(N)=O)CO4)cs3)nc2-c2csc(n2)-c2csc(n2)C(C(O)c2ccccc2)NC(=O)CNC(=O)c2nc(sc2COC)C(C(C)C)NC(=O)c2nc1sc2C (stereo unspecified)	29.6 µM
O=C1CN(C(=O)COC(=O)CCCN2C(=O)c3cccc4cccc(c34)C2=O)c2ccccc2N1	49.3 µM
CCc1ccc(-c2nc(SCC(=O)Nc3ccc4[nH]c(=O)[nH]c4c3)n[nH]2)cc1	27.4 µM
COc1ccc(-c2ccnc(-c3ccc(OCc4cccc(F)c4)cc3)n2)cc1	37.2 µM
COCCNC(=O)c1ccn(-c2ccc3ccc(-c4cnn(C)c4)cn23)n1	> 50 µM (inactive)
Cc1ccc(C(=O)N2CCCC3(C2)Nc2cccnc2NC3=NC2CCCC2)s1 (stereo unspecified)	> 50 µM (inactive)
Cc1ccc(Cn2c(=O)n(CCC(=O)NCCc3ccccc3)c(=O)c3ccccc32)cc1	11.7 µM
COc1ccc(CCNC(=O)CCn2c(=O)c3ccccc3n(Cc3ccc(C)cc3)c2=O)cc1OC	28.6 µM
CCCc1nc2sc3c(NCc4ccco4)ncnc3c2c2c1CCC2	> 50 µM (inactive)
Cc1ccc(NC(=O)Cc2nnc3cc(-c4nc(C)no4)ccn23)cc1	18.7 µM
CCOc1ccc2[nH]c3c(=O)n(CCc4ccc(OC)cc4)cnc3c2c1	4.41 µM
CC(=O)Nc1ccc(Cc2nc(-c3ccc4c(c3)nc(C)c(=O)n4C3CCCC3)no2)cc1	> 50 µM (inactive)
O=C(CCc1nnc2n(Cc3ccc(F)cc3)c(=O)c3ccccc3n12)N1CCN(c2ccccn2)CC1	> 50 µM (inactive)
N#Cc1ccc(-c2ccc(OCC(=O)Nc3ccc4c(c3)OCO4)cc2)cc1	2.48 µM

Structure (SMILES)	IC50
Cc1ccc(C)c(NC(=O)CCc2nc(CSc3nc4ccccc4o3)no2)c1	33.9 µM
O=C(NCCCN1CCc2ccccc2C1)c1cc2c(s1)CS(=O)(=O)C2	> 5 µM (inactive)
COc1cccc(NC(=O)C2CCC(CNS(=O)(=O)c3ccc4c(c3)C(C)(C)C(=O)N4C)CC2)c1 (stereo unspecified)	> 50 µM (inactive)
O=C(CSc1nnc(Cn2cnc3ccccc32)o1)Nc1ccc([N+](=O)[O-])cc1	21.1 µM
Cc1ccc2oc(=O)c(S(=O)(=O)N3CCCCC3)cc2c1	16.4 µM
COc1ccc(CNC(=O)CSc2nc3nc(C)ccc3o2)cc1	25 µM
COc1ccc(C(=O)N2CCCC3(C2)Nc2cccnc2NC3=NC2CCCC2)cn1 (stereo unspecified)	> 50 µM (inactive)
COc1cccc2sc(N3CCN(c4nc5ccccc5s4)CC3)nc12	38 µM
CNc1nc2c(c(=O)n1Cc1ccccc1)CN(C(=O)c1ccc(CN)cc1)CC2	28.3 µM
O=C(CCc1nnc2n(Cc3ccccc3)c(=O)c3ccccc3n12)N1CCN(c2ccccn2)CC1	11.3 µM
COc1cc(NC(=O)c2ccc3c(c2)OCO3)ccc1-c1cc2ccccc2oc1=O	0.678 µM
CCc1nc(N2CCCC2=O)sc1C(=O)Nc1cccc(C(C)=O)c1	> 50 µM (inactive)
CC(=O)Nc1cc(-c2cccc(O)c2)cn2c(-c3cnn(C)c3)cnc12	3.57 µM
COc1ccc(CC(=O)Nc2cccc(-c3nc4ncccc4o3)c2)cc1OC	> 50 µM (inactive)
C=C1Nc2ccccc2C(=O)N1c1cccc(NC(=O)c2ccc(C)c(C)c2)c1	> 50 µM (inactive)
O=C1CC(c2cc3c(cc2Br)OCO3)c2cc3c(cc2N1)OCCO3 (stereo unspecified)	19.6 µM
Cc1cccc(C(=O)Nc2cccc(SC(C(=O)Nc3ccc(Cl)c(C(=O)O)c3)c3ccccc3)c2)c1 (stereo unspecified)	15.2 µM
CC(C)(C)c1ccc(C(=O)Nc2ccc(Cn3cncn3)cc2)cc1	> 50 µM (inactive)
CCCC(O)CCCCCCCc1cc(O)cc(O)c1C(=O)OC(CCC)CCCCCCCc1cc(O)cc(O)c1 (stereo unspecified)	28.6 µM
COC(=O)c1cc2c(ccn2C)n1CC(=O)NC1CC1	> 50 µM (inactive)
COC(=O)C1C(c2ccc(Cl)cc2Cl)C2(C(=O)c3ccccc3C2=O)C2C=Cc3ccccc3N12 (stereo unspecified)	> 50 µM (inactive)
COc1ccc(NC(=O)c2cc(-c3cccnc3)n[nH]2)cc1Cl	11.1 µM
CCCc1cc(=O)n2[nH]c(COc3ccccc3)c(-c3ccccc3)c2n1	41.7 µM
CC1=C(c2ccc(C)c(C)c2)S(=O)(=O)NC1=NCC(=O)NCCCc1ccccc1	12.5 µM
